Experiment: Solubility of surfactant in an oral care composition (statement in Experiment 4)
Assay type: physicochemical
Conditions: compared with a monoglyceride and diglyceride mixture
From the text: The results of Experiment 4 are shown in FIG. 5 (represented by Table 6 below), which measures the toothpaste concentration that causes 50% cell hemolysis. […] Glyceryl monostearate is harder to dissolve in an oral care composition than monoglyceride and digylceride mixtures.

CCCCCCCCCCCCCCCCCC(=O)OCC(O)CO (stereo not shown) [Glyceryl monostearate, glyceryl monostearate]
solubility of the surfactant in an oral care composition: less soluble than a monoglyceride and diglyceride mixture
